According to patent US12564609B2, “Hematopoietic stem cell engraftment with a combination of agents” (The Board of Trustees of the Leland Stanford Junior …, priority 2020, dated 2026):

Experiments:
[1] = patients, subcutaneous administration of 75 mg/m^2 AZA, plasma; cited from earlier work
[2] = tested on: hematopoietic stem and progenitor cells; assay: In vivo depletion of blood, spleen and bone marrow cells by AZA; design: species or system C57BL/6 mice; conditions: AZA 5 mg/kg/d for 5 days
Method: A. Schematic of treatment protocol. C57BL/6 mice were injected with 5-Azacytidine (AZA) in dose 5 mg/kg/d for 5 consecutive days. Peripheral blood, bone marrow (BM) and spleen were analyzed on days 6, 10 and 15 and 20 after start AZA treatment. B. Peripheral blood cell counts in untreated mice as compared to AZA-treated mice at day 6, 10 and 20 following AZA treatment. Hemoglobin (Hb); white blood cells (WBC). C. Total live cells in bone marrow (BM) and spleen of untreated mice and AZA-treated mice at day 6, 10, 15 and 20 after start AZA treatment. D. Hematoxylin and eosin staining of bone marrow section from mouse femur at day 6 after treatment with AZA 5 mg/kg/d for 5 days as compared to untreated control. Magnification 100 μm. E. Representative flow cytometric analysis of the hematopoietic stem and progenitor cell (HSPC) compartment in the BM of untreated and AZA-treated mice at day 6, 10, 15 and 20. […] Lin^−Sca1^+ c-Kit^+ cells (LSK), multipotent progenitors (MPP), long-term hematopoietic stem cells (LT-HSC), short-term HSC (ST-HSC). F. Absolute number of the different HSPC compartments at day 6, 10, 15 and 20 after start of AZA treatment as compared to untreated control mice. Lin^−Sca1^+c-Kit^+ (LSK); LSKCD150^+CD48^− (LT-HSC), LSKCD150^−CD48^− (ST-HSC), LSKCD150^+CD48^+ (MPP2), LSKCD150^−CD48^+Flt3^− (MPP3), LSKCD150^−CD48^+Flt3^+ (MPP4). Data in (B), (C) and (F) represent mean±SD (n=4 per group per timepoint). Statistics were calculated with Mann-Whitney test (*P<0.05).
Mice. C57BL/6 (B6) mice (H-2^b, Thy1.1, CD45.1/CD45.2) were recipients and B6 mice (H-2^b, Thy1.1, CD45.1) were donors for the congenic transplant experiments. BALB.B (H-2^b, Thy1.2, CD45.2) mice were used as recipients and B6 mice (H-2^b, Thy1.1, CD45.1) as donors for […] (allogeneic) transplant experiments. Recipients were >8 weeks old and donors were 8-12 weeks old at timepoint of transplantation. B6 (H-2^b, Thy1.1, CD45.2) mice were used for in vivo depletion studies. Mice were bred and maintained under pathogen free conditions at the Stanford University Research Animal Facility. All experiments were performed under a protocol approved by the Stanford Administrative Panel on Laboratory Animal Care.
In vivo administration of therapeutic agents and cytokines. Anti-mouse CD117 mAbs, clone ACK2 (BioXcell) and 2B8 (BioXcell), were injected retroorbital as a single dose of 500 μg following intraperitoneal administration of Diphenhydramine (Benadryl). Anti CD4 (clone GK1.5, BioXcell) and anti-CD8 (clone YTS169.4, BioXcell) were administered intraperitoneally at a dose of 100 μg in 100 μl phosphate-buffered saline (PBS). […] Before each injection, AZA was thawed for 10-15 min at room temperature (RT), resuspended in PBS and administered intraperitoneally in 100 μl. Recombinant murine SCF (PeproTech), dissolved in deionized water to concentration of 10 μg/ml, was injected intraperitoneally at the amount of 1 μg/day.
Flow cytometry. Cells were stained for surface markers and incubated at RT in the dark for 20 min.
Bone marrow and spleen cell preparation for analysis. Mice were euthanized and bone marrow (hips, femurs, tibia, spine) and spleen were harvested. Bones were crushed in PBS+2% bovine calf serum (BCS) into single cell suspensions and filtered through 70-μm filter (Falcon). Spleens were mashed direct in 70-μm filter (Falcon). RBC lysis was performed with ACK lysis buffer for 10 min at RT. Cells were rinsed, filtered again and counted on a Countess automated cell counter (Invitrogen).
Complete blood cell count. 20 μl of whole blood was collected via the tail vein and complete blood counts (CBC) were conducted using Heska HemaTrue Veterinary Hematology Analyzer (Heska).

SMILES: Nc1ncn([C@@H]2O[C@H](CO)[C@@H](O)[C@H]2O)c(=O)n1 [AZA, 5-Azacytidine]
- Cmax [1]: 750 ± 403.3 ng/mL
- rebound of splenic myeloid cells to normal levels [2]: ≤ 10 days
- recovery of BM B cells [2]: > 15 days
- recovery of all blood subsets to normal range values [2]: ≤ 20 days
- recovery of overall BM cellularity [2]: ≤ 10 days
- recovery of the ST-HSC fraction in BM [2]: > 20 days
- nadir of MPP4 and common lymphoid progenitors (CLP) ([2]; BM): 10 days
- recovery of CMP and GMP ([2]; BM): > 15 days
- recovery of MEP ([2]; BM): ≤ 10 days
- recovery of MPP4 and CLP ([2]; BM): ≤ 20 days
- myeloid-biased multipotent progenitors MPP2 and MPP3 after BM depletion of HSC ([2]; by day 6): rapid expansion
- depletion of common myeloid progenitors (CMP) ([2]; by day 6, BM): > 25 fold
- depletion of granulocyte-macrophage progenitors (GMP) ([2]; by day 6, BM): > 18 fold
- depletion of megakaryocyte-erythrocyte progenitors (MEP) ([2]; by day 6, BM): > 11 fold
- reduction of LT-HSC in BM at nadir ([2]; day 6): 15 fold
- reduction of ST-HSC in BM at nadir ([2]; day 6): 24 fold
- splenic myeloid cells ([2]; day 6): significantly reduced
- overall BM cellularity decreased ([2]; day 6, p value=0.0286): 80 % from baseline
- maximal B cell (CD19) depletion in BM ([2]; day 10): > 30 fold
- B-cell development in the bone marrow (Hardy fractions) ([2]; days 6, 10, 15 and 20): maturation block at Fraction D and E
- reduction of granulocytes in blood ([2]; peripheral blood): ~4 fold
- day of lowest blood values (Hb, WBC, granulocytes, lymphocytes, monocytes) ([2]; days after initiation of AZA): 10 days
